Source: BindingDB's records for doi:10.1021/acs.jmedchem.9b00575 (Glaxosmithkline, 2019)

Molecular target: Nucleotide-binding oligomerization domain-containing protein 2 (Homo sapiens, UniProt Q9HC29)
Test: Inhibition of NOD2 in human monocytes assessed as reduction in MDP-induced TNFalpha production preincubated for 30 mins followed by MDP-stimulation and measured after 6 hrs by immunoassay

Chain of Nucleotide-binding oligomerization domain-containing protein 2 (Q9HC29 whole entry, the tested form may be a part): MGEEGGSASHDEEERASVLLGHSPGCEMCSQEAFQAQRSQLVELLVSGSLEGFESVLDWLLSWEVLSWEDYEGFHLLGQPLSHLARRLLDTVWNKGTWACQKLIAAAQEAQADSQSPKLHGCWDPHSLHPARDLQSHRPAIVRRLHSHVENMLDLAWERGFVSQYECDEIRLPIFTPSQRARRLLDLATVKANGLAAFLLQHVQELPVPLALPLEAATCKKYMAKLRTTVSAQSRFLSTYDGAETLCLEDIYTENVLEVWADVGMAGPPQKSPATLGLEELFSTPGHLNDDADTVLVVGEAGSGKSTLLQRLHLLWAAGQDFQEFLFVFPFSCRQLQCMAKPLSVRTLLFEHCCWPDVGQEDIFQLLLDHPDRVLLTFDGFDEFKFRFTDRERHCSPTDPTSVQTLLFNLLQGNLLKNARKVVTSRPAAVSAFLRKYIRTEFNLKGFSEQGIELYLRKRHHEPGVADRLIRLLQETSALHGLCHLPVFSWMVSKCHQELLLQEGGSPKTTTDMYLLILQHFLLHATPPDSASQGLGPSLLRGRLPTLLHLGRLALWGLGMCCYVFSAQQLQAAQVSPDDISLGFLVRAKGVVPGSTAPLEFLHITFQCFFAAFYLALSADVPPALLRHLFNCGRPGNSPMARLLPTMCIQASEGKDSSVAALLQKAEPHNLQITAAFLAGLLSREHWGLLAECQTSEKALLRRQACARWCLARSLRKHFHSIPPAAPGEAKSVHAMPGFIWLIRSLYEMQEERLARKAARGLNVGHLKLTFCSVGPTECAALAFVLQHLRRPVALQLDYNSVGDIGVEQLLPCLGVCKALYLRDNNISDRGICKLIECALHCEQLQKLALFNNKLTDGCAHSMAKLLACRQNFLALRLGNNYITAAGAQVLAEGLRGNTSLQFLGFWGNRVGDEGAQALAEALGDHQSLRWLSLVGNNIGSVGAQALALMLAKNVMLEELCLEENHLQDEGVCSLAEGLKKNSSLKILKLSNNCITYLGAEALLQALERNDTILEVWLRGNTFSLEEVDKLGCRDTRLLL

IC50: 13 nM
SMILES: CC(C)(C)S(=O)(=O)c1cc2c(Nc3ccc4scnc4c3)ncnc2cc1OCCO
